Data reported in US20020137929A1, “1 - (3-heterocyclylphenyl) isothiourea, -isourea, -guanidine and -amidine herbicidal agents” (Intellectual Property Department, BASF Aktiengesellschaft, priority 1998, published 2002).

Legend:
ZEAMX (Corn, Field) = test: Preemergence herbicidal evaluation; assay type: in vivo, Zea mays; settings: rated 4-5 weeks after treatment
Method in brief: (§1)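 Rating at 4–5 wk post-spray on a 0–9 visual scale vs control. Application: aqueous acetone, ~0.0156–0.500 kg/ha, to soil surface after seeding, preemergence.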

[1] = test system: IPOHE (Morningglory, Ivyleaf); test: Preemergence herbicidal evaluation; assay type: in vivo, Ipomoea hederacea; settings: rated 4-5 weeks after treatment
Method in brief: as §1

SETVI (Foxtail, Green) = test: Postemergence herbicidal evaluation; assay type: in vivo, Setaria viridis; settings: postemergence
Method in brief: (§2)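 Visual 0–9 rating versus control (stand, vigor, malformation, size, chlorosis, overall appearance), taken four to five weeks post-spray. Two-week-old seedlings received roughly 0.0156–0.500 kg/ha active in acetone/water (50/50) with 0.5% TWEEN 20 via nozzle at 40 psi.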

ABUTH (Velvetleaf) = test: Postemergence herbicidal evaluation; assay type: in vivo, Abutilon theophrasti; settings: postemergence
Method in brief: as §2

CYPIR (Rice Flatsedge) = test: Preemergence weed control under flooded paddy conditions; assay type: in vivo, Cyperus iria; settings: rated 3-4 weeks after treatment
Method in brief: (§3)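 Flooded-pot preemergence screen with silt loam and seeds in the upper 0.5 cm. Dose about 0.0313 to 0.500 kg/ha, delivered into flood water; visual 0-9 score after 3 to 4 weeks.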

[2] = test system: TRZAWR (Wheat, Winter, cv Riband); test: Preemergence herbicidal evaluation; assay type: in vivo, Triticum aestivum; settings: rated 4-5 weeks after treatment
From the text: Results of herbicide evaluation are expressed on a rating scale (0-9). The scale is based upon a visual observation of plant stand, vigor, malformation, size, chlorosis and overall plant appearance as compared with a control.
The preemergence herbicidal activity of the test compounds of the present invention is exemplified by the following tests in which the seeds of a variety of monocotyledonous and dicotyledonous plants are separately mixed with potting soil and planted on top of approximately one inch of soil in separate pint cups. After planting, the cups are sprayed with the selected aqueous acetone solution containing test compound in sufficient quantity to provide the equivalent of about 0.0156 to 0.500 kg per hectare of test compound per cup. The treated cups are then placed on greenhouse benches, watered and cared for in accordance with conventional greenhouse procedures. From four to five weeks after treatment, the tests are terminated and each cup is examined and rated according to the rating system provided in Example 37.
The compounds evaluated are reported by compound number given in Example 37.

ECHCG (Barnyardgrass) = test: Postemergence herbicidal evaluation; assay type: in vivo, Echinochloa crus-galli; settings: postemergence
Method in brief: as §2

MOOVA (Monochoria) = test: Preemergence weed control under flooded paddy conditions; assay type: in vivo, Monochoria vaginalis; settings: rated 3-4 weeks after treatment
Method in brief: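 Silt loam, seeds in top 0.5 cm; flood held 1.5-3 cm; test cpd as acetone/water 50/50 into flood water, ~0.0313-0.500 kg/ha a.i.; greenhouse 3-4 wk; visual 0-9 score vs control.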

ORYSAT (Rice, Tebonnet) = test: Postemergence herbicidal evaluation; assay type: in vivo, Oryza sativa, (L.) Tebonnet; settings: postemergence
Method in brief: as §2

GALAP (Galium) = test: Postemergence herbicidal evaluation; assay type: in vivo, Galium aparine; settings: postemergence
Method in brief: as §2

[3] = test system: ECHORC (Watergrass (Calif.)); test: Preemergence weed control under flooded paddy conditions; assay type: in vivo, Echinochloa oryzoides; settings: rated 3-4 weeks after treatment
Method in brief: as §3

[4] = rate 0.0313 kg/ha, rating scale 0-9
[5] = rate 0.0625 kg/ha, rating scale 0-9
[6] = rate 0.1250 kg/ha, rating scale 0-9
[7] = rate 0.2500 kg/ha, rating scale 0-9

Compound: Cn1c(C(F)(F)F)cc(=O)n(-c2cc(N=C3SCC(=O)N3Cc3cc(Cl)cc(Cl)c3)c(Cl)cc2F)c1=O [Compound 150, 3-{4-Chloro-5-{[3-(3,5-dichlorobenzyl)-4-oxo-2-thiazolidinylidene]amino}-2-fluorophenyl}-1-methyl-6-(trifluoromethyl)-2,4(1H,3H)-pyrimidinedione]
- Preemergence herbicidal rating ZEAMX (ZEAMX (Corn, Field); [4]): 0.0
- Preemergence herbicidal rating ZEAMX (ZEAMX (Corn, Field); [5]): 1.0
- Preemergence herbicidal rating ZEAMX (ZEAMX (Corn, Field); [6]): 2.0
- Preemergence herbicidal rating ZEAMX (ZEAMX (Corn, Field); [7]): 1.0
- Preemergence herbicidal rating IPOHE [1, 4]: 0.0
- Preemergence herbicidal rating IPOHE [1, 5]: 0.0
- Preemergence herbicidal rating IPOHE [1, 6]: 9.0
- Preemergence herbicidal rating IPOHE [1, 7]: 9.0
- Herbicidal rating SETVI (SETVI (Foxtail, Green); rate 0.0156 kg/ha): 1.0
- Herbicidal rating SETVI (SETVI (Foxtail, Green); rate 0.0313 kg/ha): 1.0
- Herbicidal rating SETVI (SETVI (Foxtail, Green); rate 0.0625 kg/ha): 5.0
- Herbicidal rating ABUTH (ABUTH (Velvetleaf); rate 0.0156 kg/ha): 9.0
- Herbicidal rating ABUTH (ABUTH (Velvetleaf); rate 0.0313 kg/ha): 9.0
- Herbicidal rating ABUTH (ABUTH (Velvetleaf); rate 0.0625 kg/ha): 9.0
- herbicidal effect rating, CYPIR (CYPIR (Rice Flatsedge); 0.0313 kg/ha): 9.0
- herbicidal effect rating, CYPIR (CYPIR (Rice Flatsedge); 0.0625 kg/ha): 9.0
- herbicidal effect rating, CYPIR (CYPIR (Rice Flatsedge); 0.1250 kg/ha): 9.0
- herbicidal effect rating, CYPIR (CYPIR (Rice Flatsedge); 0.2500 kg/ha): 9.0
- Preemergence herbicidal rating TRZAWR [2, 4]: 0.0
- Preemergence herbicidal rating TRZAWR [2, 5]: 0.0
- Preemergence herbicidal rating TRZAWR [2, 6]: 1.0
- Preemergence herbicidal rating TRZAWR [2, 7]: 1.0
- Herbicidal rating ECHCG (ECHCG (Barnyardgrass); rate 0.0156 kg/ha): 2.0
- Herbicidal rating ECHCG (ECHCG (Barnyardgrass); rate 0.0313 kg/ha): 1.0
- Herbicidal rating ECHCG (ECHCG (Barnyardgrass); rate 0.0625 kg/ha): 2.0
- herbicidal effect rating, MOOVA (MOOVA (Monochoria); 0.0313 kg/ha): 6.0
- herbicidal effect rating, MOOVA (MOOVA (Monochoria); 0.0625 kg/ha): 9.0
- herbicidal effect rating, MOOVA (MOOVA (Monochoria); 0.1250 kg/ha): 9.0
- herbicidal effect rating, MOOVA (MOOVA (Monochoria); 0.2500 kg/ha): 9.0
- Herbicidal rating ORYSAT (ORYSAT (Rice, Tebonnet); rate 0.0156 kg/ha): 2.0
- Herbicidal rating ORYSAT (ORYSAT (Rice, Tebonnet); rate 0.0313 kg/ha): 2.5
- Herbicidal rating ORYSAT (ORYSAT (Rice, Tebonnet); rate 0.0625 kg/ha): 3.0
- Herbicidal rating GALAP (GALAP (Galium); rate 0.0156 kg/ha): 1.0
- Herbicidal rating GALAP (GALAP (Galium); rate 0.0313 kg/ha): 2.0
- Herbicidal rating GALAP (GALAP (Galium); rate 0.0625 kg/ha): 4.0
- herbicidal effect rating, ECHORC ([3]; 0.0313 kg/ha): 6.0
- herbicidal effect rating, ECHORC ([3]; 0.0625 kg/ha): 7.0
- herbicidal effect rating, ECHORC ([3]; 0.1250 kg/ha): 9.0
- herbicidal effect rating, ECHORC ([3]; 0.2500 kg/ha): 9.0

Compound: Cc1ccccc1CN1C(=O)CSC1=Nc1cc(-n2c(=O)cc(C(F)(F)F)n(C)c2=O)c(F)cc1Cl [Compound 129, 3-{4-Chloro-2-fluoro-5-{[3-(o-methylbenzyl)-4-oxo-2-thiazolidinylidene]amino}phenyl}-1-methyl-6-(trifluoromethyl)-2,4 (1H,3H)-pyrimidinedione]
- Preemergence herbicidal rating ZEAMX (ZEAMX (Corn, Field); rate 0.0156 kg/ha): 0.0
- Preemergence herbicidal rating ZEAMX (ZEAMX (Corn, Field); rate 0.0313 kg/ha): 0.0
- Preemergence herbicidal rating ZEAMX (ZEAMX (Corn, Field); rate 0.0625 kg/ha): 0.0
- Preemergence herbicidal rating ZEAMX (ZEAMX (Corn, Field); rate 0.1250 kg/ha): 1.0
- Preemergence herbicidal rating ZEAMX (ZEAMX (Corn, Field); rate 0.2500 kg/ha): 1.0
- Preemergence herbicidal rating IPOHE ([1]; rate 0.0156 kg/ha): 0.0
- Preemergence herbicidal rating IPOHE ([1]; rate 0.0313 kg/ha): 0.0
- Preemergence herbicidal rating IPOHE ([1]; rate 0.0625 kg/ha): 0.0
- Preemergence herbicidal rating IPOHE ([1]; rate 0.1250 kg/ha): 9.0
- Preemergence herbicidal rating IPOHE ([1]; rate 0.2500 kg/ha): 9.0
- Herbicidal rating SETVI (SETVI (Foxtail, Green); rate 0.0156 kg/ha): 2.0
- Herbicidal rating SETVI (SETVI (Foxtail, Green); rate 0.0313 kg/ha): 3.0
- Herbicidal rating SETVI (SETVI (Foxtail, Green); rate 0.0625 kg/ha): 5.0
- Herbicidal rating ABUTH (ABUTH (Velvetleaf); rate 0.0156 kg/ha): 9.0
- Herbicidal rating ABUTH (ABUTH (Velvetleaf); rate 0.0313 kg/ha): 9.0
- Herbicidal rating ABUTH (ABUTH (Velvetleaf); rate 0.0625 kg/ha): 9.0
- herbicidal effect rating, CYPIR (CYPIR (Rice Flatsedge); 0.0313 kg/ha): 4.0
- herbicidal effect rating, CYPIR (CYPIR (Rice Flatsedge); 0.0625 kg/ha): 5.0
- herbicidal effect rating, CYPIR (CYPIR (Rice Flatsedge); 0.1250 kg/ha): 7.0
- herbicidal effect rating, CYPIR (CYPIR (Rice Flatsedge); 0.2500 kg/ha): 9.0
- Preemergence herbicidal rating TRZAWR ([2]; rate 0.0156 kg/ha): 0.0
- Preemergence herbicidal rating TRZAWR ([2]; rate 0.0313 kg/ha): 0.0
- Preemergence herbicidal rating TRZAWR ([2]; rate 0.0625 kg/ha): 0.0
- Preemergence herbicidal rating TRZAWR ([2]; rate 0.1250 kg/ha): 1.0
- Preemergence herbicidal rating TRZAWR ([2]; rate 0.2500 kg/ha): 1.0
- Herbicidal rating ECHCG (ECHCG (Barnyardgrass); rate 0.0156 kg/ha): 1.0
- Herbicidal rating ECHCG (ECHCG (Barnyardgrass); rate 0.0313 kg/ha): 2.0
- Herbicidal rating ECHCG (ECHCG (Barnyardgrass); rate 0.0625 kg/ha): 3.0
- herbicidal effect rating, MOOVA (MOOVA (Monochoria); 0.0313 kg/ha): 6.0
- herbicidal effect rating, MOOVA (MOOVA (Monochoria); 0.0625 kg/ha): 7.0
- herbicidal effect rating, MOOVA (MOOVA (Monochoria); 0.1250 kg/ha): 9.0
- herbicidal effect rating, MOOVA (MOOVA (Monochoria); 0.2500 kg/ha): 9.0
- Herbicidal rating ORYSAT (ORYSAT (Rice, Tebonnet); rate 0.0156 kg/ha): 2.5
- Herbicidal rating ORYSAT (ORYSAT (Rice, Tebonnet); rate 0.0313 kg/ha): 3.5
- Herbicidal rating ORYSAT (ORYSAT (Rice, Tebonnet); rate 0.0625 kg/ha): 3.0
- Herbicidal rating GALAP (GALAP (Galium); rate 0.0156 kg/ha): 2.0
- Herbicidal rating GALAP (GALAP (Galium); rate 0.0313 kg/ha): 4.0
- Herbicidal rating GALAP (GALAP (Galium); rate 0.0625 kg/ha): 4.0
- herbicidal effect rating, ECHORC ([3]; 0.0313 kg/ha): 9.0
- herbicidal effect rating, ECHORC ([3]; 0.0625 kg/ha): 9.0
- herbicidal effect rating, ECHORC ([3]; 0.1250 kg/ha): 9.0
- herbicidal effect rating, ECHORC ([3]; 0.2500 kg/ha): 9.0
